# Reference: article PMC11775380, “Discovery of Novel Nav1.7-Selective Inhibitors with the 1H-Indole-3-Propionamide Scaffold for Effective Pain Relief” (Research, 2025)
# Key:
# Type in all cases: cell-based
# Nav1.7 I1612A = target: T1, Nav1.7 I1612A (Homo sapiens, UniProt Q15858, I1612A); assay: Single site-directed mutagenesis, inhibition by patch clamp; details: 1 μM
# T1 construct: expressed in transfected cells; host or cells: HEK293T
# Protocol: (§1) The amino acids depicted in Fig. 4C were individually mutated to alanine or glycine to perform single site-directed mutagenesis. Subsequently, the inhibition rates of these mutations against WN2-R were measured at a concentration of 1 μM (Fig. 4D). […] While single site-directed mutagenesis did affect the antagonistic activity of WN2-R, it did so to a limited extent, as the presumed induced-fit effect typically arises from the concerted movement of multiple residues.
# (§2) Whole-cell patch-clamp recordings were conducted at 25 ± 2 °C, utilizing an EPC 10USB patch-clamp amplifier (HEKA Elektronik, Lambrecht, Germany). Pipettes, with access resistance between 2.0 and 3.0 MΩ, were pulled from borosilicate glass capillary tubes using a 2-step vertical microelectrode puller (PC-10, Narishige Group, Tokyo, Japan). Voltage-clamp recordings were obtained with PatchMaster software v2 × 73 (HEKA Elektronik) 5 min after establishing whole-cell configuration, sampled at 20 kHz, and filtered at 5 kHz. To minimize voltage errors, 80% series resistance compensation was applied. Pipettes were filled with 140 mM CsF, 10 mM NaCl, 1 mM EGTA, and 10 mM HEPES (pH=7.4, adjusted with CsOH). The external solution contained 140 mM NaCl, 2 mM CaCl2, 1 mM MgCl2, 5 mM KCl, 10 mM HEPES, and 10 mM glucose (pH=7.4, adjusted with NaOH). IC50 values were determined in HEK293T or ND7/23 cell lines by voltage clamping at −80 mV, followed by stepping to the V1/2 of inactivation for 8 s to facilitate compound binding.
# Nav1.7 R1613A = target: T2, Nav1.7 R1613A (Homo sapiens, UniProt Q15858, R1613A); assay: as above; details: 1 μM
# T2 construct: expressed in transfected cells; host or cells: HEK293T
# Protocol: as §1, §2
# Nav1.7 Y1548A = target: T3, Nav1.7 Y1548A (Homo sapiens, UniProt Q15858, Y1548A); assay: as above; details: 1 μM
# T3 construct: expressed in transfected cells; host or cells: HEK293T
# Protocol: as §1, §2
# Nav1.7 A1596G = target: T4, Nav1.7 A1596G (Homo sapiens, UniProt Q15858, A1596G); assay: as above; details: 1 μM
# T4 construct: expressed in transfected cells; host or cells: HEK293T
# Protocol: as §1, §2
# Nav1.7 N1551A = target: T5, Nav1.7 N1551A (Homo sapiens, UniProt Q15858, N1551A); assay: as above; details: 1 μM
# T5 construct: expressed in transfected cells; host or cells: HEK293T
# Protocol: as §1, §2
# Nav1.7 F1609A = target: T6, Nav1.7 F1609A (Homo sapiens, UniProt Q15858, F1609A); assay: as above; details: 1 μM
# T6 construct: expressed in transfected cells; host or cells: HEK293T
# Protocol: as §1, §2
# Nav1.7 M1593A = target: T7, Nav1.7 M1593A (Homo sapiens, UniProt Q15858, M1593A); assay: as above; details: 1 μM
# T7 construct: expressed in transfected cells; host or cells: HEK293T
# Protocol: as §1, §2
# Nav1.7 T1544A = target: T8, Nav1.7 T1544A (Homo sapiens, UniProt Q15858, T1544A); assay: as above; details: 1 μM
# T8 construct: expressed in transfected cells; host or cells: HEK293T
# Protocol: as §1, §2
# hNav1.4 = target: T9, hNav1.4 (Homo sapiens, UniProt P35499); assay: Subtype selectivity, patch clamp; details: read-out: Inhibitory rate on Nav1.4
# T9 construct: expressed in transfected cells; host or cells: HEK293T
# Protocol: (§3) VGSC inhibitors required credible subtype selectivity to void side effects caused by binding to nontarget subtypes. At a concentration of 1 μM, the inhibitory rates of WN2-R on hNav1.2, hNav1.3, hNav1.4, hNav1.5, mNav1.6, and hNav1.8 were determined (n = 3 to 6, Fig. 7A). […] To further evaluate the drug safety profile, high-dose acute toxicity experiments were conducted. Mice were administered a high dose of 30 mg/kg WN2-R through i.p. administration. The rotarod test, forced-swim test, and open field test were used to explore the effect of high-dose WN2-R on the motor ability of mice (n = 4). The rotarod test evaluated the drug's effect on motor coordination, the forced-swim test examined its impact on the overall motor system, and the open field test assessed the drug's influence on the motor and nervous systems.
# (§4) Human embryonic kidney (HEK) 293T (ATCC CRL-3216) and ND7/23 cells (National Collection of Authenticated Cell Cultures SCSP-5026) were cultured under standard conditions (5% CO2, 37 °C) in Dulbecco’s modified Eagle’s medium (DMEM) containing 10% fetal bovine serum and 1% penicillin-streptomycin solution(all from Gibco, Thermo Fisher Scientific, Waltham, MA, USA). When the cells reached 70% to 90% confluence, human Nav1.2 (hNav1.2), human Nav1.3 (hNav1.3), human Nav1.4 (hNav1.4), human Nav1.5 (hNav1.5), and mouse Nav1.6 (mNav1.6) channel plasmids were cotransfected with enhanced green fluorescent protein (eGFP) into HEK293T cells. Additionally, plasmids expressing β1 and β2 subunits tagged with eGFP were cotransfected with the human Nav1.7 (hNav1.7) channel into HEK293T cells. Human Nav1.8 (hNav1.8) was transiently transfected into ND7/23 cells, along with eGFP, using Lipofectamine 2000 (Invitrogen), adhering strictly to the manufacturer’s protocol. For manual patch-clamp experiments, the cells were plated onto glass coverslips and used within 20 to 48 h of transfection.
# as §2
# hNav1.5 = target: T10, hNav1.5 (Homo sapiens, UniProt Q14524); assay: Subtype selectivity, patch clamp; details: read-out: Inhibitory rate on Nav1.5
# T10 construct: expressed in transfected cells; host or cells: HEK293T
# Protocol: as §3, §4, §2
# hNav1.3 = target: T11, hNav1.3 (Homo sapiens, UniProt Q9NY46); assay: Subtype selectivity, patch clamp; details: 1 μM
# T11 construct: expressed in transfected cells; host or cells: HEK293T
# Protocol: as §3, §4, §2
# mNav1.6 = target: T12, mNav1.6 (Mus musculus, UniProt Q9WTU3); assay: Subtype selectivity, patch clamp; details: 1 μM
# T12 construct: expressed in transfected cells; host or cells: HEK293T
# Protocol: as §3, §4, §2
# hNav1.2 = target: T13, hNav1.2 (Homo sapiens, UniProt Q99250); assay: Subtype selectivity, patch clamp; details: 1 μM
# T13 construct: expressed in transfected cells; host or cells: HEK293T
# Protocol: as §3, §4, §2
# T5 sequence (Q15858 whole entry N1551A): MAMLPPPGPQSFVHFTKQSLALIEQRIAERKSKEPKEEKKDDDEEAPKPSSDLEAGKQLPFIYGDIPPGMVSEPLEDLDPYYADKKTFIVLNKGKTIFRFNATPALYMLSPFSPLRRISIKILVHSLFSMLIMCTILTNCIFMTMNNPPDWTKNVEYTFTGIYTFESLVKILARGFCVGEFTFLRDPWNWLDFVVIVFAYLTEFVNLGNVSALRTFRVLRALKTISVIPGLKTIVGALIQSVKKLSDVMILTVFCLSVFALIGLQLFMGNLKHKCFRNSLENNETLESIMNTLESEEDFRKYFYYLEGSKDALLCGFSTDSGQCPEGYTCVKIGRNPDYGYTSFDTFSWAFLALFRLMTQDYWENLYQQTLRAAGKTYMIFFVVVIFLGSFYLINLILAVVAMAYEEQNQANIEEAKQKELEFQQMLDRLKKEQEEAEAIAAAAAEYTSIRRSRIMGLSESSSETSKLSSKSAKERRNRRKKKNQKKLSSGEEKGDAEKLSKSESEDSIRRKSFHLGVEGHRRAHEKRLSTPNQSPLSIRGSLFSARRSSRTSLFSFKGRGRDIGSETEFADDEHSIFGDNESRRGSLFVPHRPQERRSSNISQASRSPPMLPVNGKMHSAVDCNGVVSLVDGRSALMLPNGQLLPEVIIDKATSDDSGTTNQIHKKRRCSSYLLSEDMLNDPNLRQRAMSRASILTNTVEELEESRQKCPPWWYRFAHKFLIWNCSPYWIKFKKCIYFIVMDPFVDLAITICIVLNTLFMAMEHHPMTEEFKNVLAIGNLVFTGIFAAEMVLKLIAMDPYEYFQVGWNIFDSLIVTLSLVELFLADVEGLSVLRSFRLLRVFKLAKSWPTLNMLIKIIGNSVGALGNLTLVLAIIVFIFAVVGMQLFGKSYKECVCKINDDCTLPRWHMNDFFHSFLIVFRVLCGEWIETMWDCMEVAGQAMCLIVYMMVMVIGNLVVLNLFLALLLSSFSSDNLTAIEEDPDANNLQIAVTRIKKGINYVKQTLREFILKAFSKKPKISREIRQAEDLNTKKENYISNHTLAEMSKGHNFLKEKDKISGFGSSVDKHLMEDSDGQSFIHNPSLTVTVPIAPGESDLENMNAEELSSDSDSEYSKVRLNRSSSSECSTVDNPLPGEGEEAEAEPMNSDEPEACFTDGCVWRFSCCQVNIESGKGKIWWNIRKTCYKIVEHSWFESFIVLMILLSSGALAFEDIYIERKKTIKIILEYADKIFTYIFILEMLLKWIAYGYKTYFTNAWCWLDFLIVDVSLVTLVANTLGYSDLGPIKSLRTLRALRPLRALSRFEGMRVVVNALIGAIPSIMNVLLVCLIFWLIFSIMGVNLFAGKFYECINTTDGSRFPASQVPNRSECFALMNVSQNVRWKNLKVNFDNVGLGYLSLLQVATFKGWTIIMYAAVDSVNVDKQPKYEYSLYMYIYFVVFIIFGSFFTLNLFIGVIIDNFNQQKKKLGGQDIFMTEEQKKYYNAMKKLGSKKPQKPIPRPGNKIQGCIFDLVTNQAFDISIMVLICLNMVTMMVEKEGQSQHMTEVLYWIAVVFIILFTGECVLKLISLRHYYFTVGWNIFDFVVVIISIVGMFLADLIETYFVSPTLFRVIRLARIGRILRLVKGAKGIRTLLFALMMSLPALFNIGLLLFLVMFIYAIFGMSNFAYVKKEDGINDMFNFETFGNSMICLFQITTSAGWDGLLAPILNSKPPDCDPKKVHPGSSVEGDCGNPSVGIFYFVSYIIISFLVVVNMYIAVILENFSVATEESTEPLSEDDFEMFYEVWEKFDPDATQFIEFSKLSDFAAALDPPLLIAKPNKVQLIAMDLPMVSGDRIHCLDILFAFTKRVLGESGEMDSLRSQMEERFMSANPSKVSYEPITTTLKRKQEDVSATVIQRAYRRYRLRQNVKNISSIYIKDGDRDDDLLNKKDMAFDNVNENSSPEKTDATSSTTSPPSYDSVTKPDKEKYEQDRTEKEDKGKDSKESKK
# T5 sequence (Q07699 19-218 partner): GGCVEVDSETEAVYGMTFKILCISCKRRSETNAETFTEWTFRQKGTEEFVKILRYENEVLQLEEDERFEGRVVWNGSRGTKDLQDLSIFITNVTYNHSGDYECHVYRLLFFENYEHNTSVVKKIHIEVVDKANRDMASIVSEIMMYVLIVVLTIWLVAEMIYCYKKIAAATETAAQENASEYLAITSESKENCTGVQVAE
# T5 sequence (O60939 30-215 partner): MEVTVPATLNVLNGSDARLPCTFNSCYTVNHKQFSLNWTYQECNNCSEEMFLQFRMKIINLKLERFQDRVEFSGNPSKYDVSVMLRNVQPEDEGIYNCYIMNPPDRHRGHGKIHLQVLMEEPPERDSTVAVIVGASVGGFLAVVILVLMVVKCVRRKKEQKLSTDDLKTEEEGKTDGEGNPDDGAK
# T1 sequence (Q15858 whole entry I1612A): as the sequence (Q15858 whole entry N1551A) above, with A1551N, I1612A counted along it
# T1 sequence (Q07699 19-218 partner): as the sequence (Q07699 19-218 partner) above
# T1 sequence (O60939 30-215 partner): as the sequence (O60939 30-215 partner) above
compound,measurement,setting,value
Cc1ccc(Cn2cc([C@H](CC(=O)NCCN(C)C)c3ccc(F)cc3)c3ccccc32)cc1 [WN2-R],Inhibition rate on the mutant relative to wild type,Nav1.7 I1612A,30.6 % of WT
same,Inhibition rate on the mutant relative to wild type,Nav1.7 R1613A,57.4 % of WT
same,Effect of the mutation on antagonistic activity,Nav1.7 Y1548A,minimal impact
same,Effect of the mutation on antagonistic activity,Nav1.7 A1596G,exerted an influence
same,Inhibition rate on the mutant relative to wild type,Nav1.7 N1551A,58.9 % of WT
same,Effect of the mutation on antagonistic activity,Nav1.7 F1609A,minimal impact
same,Inhibition rate on the mutant relative to wild type,Nav1.7 M1593A,57.1 % of WT
same,Inhibition rate on the mutant relative to wild type,Nav1.7 T1544A,60.7 % of WT
same,inhibition at 1 µM,hNav1.4,16.3%
same,inhibition at 1 µM,hNav1.5,19.1%
same,Inhibitory rate on hNav1.3,hNav1.3,much lower than that on Nav1.7
same,Inhibitory rate on mNav1.6,mNav1.6,much lower than that on Nav1.7
same,Inhibitory rate on hNav1.2,hNav1.2,much lower than that on Nav1.7
